Values after ≈ are worked out from the molar mass of the structure shown.
Tests used:
Test in all cases: MIC/MLC broth dilution assay against fish pathogens
Assay type in all cases: cell-based
[1] = test system: Streptococcus agalactiae; settings: (TSAY/TSBY)/28° C./48 h; for MIC: Streptococcus agalactiae, read-out: Minimum Inhibitory Concentration
[2] = test system: Streptococcus iniae; settings: (TSAY/TSBY)/28° C./48 h; for MIC: Streptococcus iniae, read-out: Minimum Inhibitory Concentration
[3] = test system: Tenacibaculum maritimum; settings: (MA/MB)/15° C./8 days
[4] = test system: Piscirickettsia salmonis; settings: L15/15° C./21 days, read-out: Minimum Inhibitory Concentration
[5] = test system: Renibacterium salmoninarum; settings: KDM-2/15° C./14 days, read-out: Minimum Inhibitory Concentration
[6] = test system: Flavobacterium columnare; settings: TYES/20° C./2 days, read-out: Minimum Inhibitory Concentration
[7] = test system: Aeromonas salmonicida; settings: (TSA/TSB)/20° C./24 h, read-out: Minimum Inhibitory Concentration
[8] = test system: Vibrio parahaemolyticus; settings: (TSA2/TSB2)/37° C./24 h, read-out: Minimum Inhibitory Concentration

| Compound | MIC [1] [µg/mL] | MIC [2] [µg/mL] | Minimum Lethal Concentration [3] [µg/mL] | MIC ([3]; Tenacibaculum maritimum, read-out: Minimum Inhibitory Concentration) [µg/mL] | MIC [4] [µg/mL] | MIC [5] [µg/mL] | MIC [6] [µg/mL] | MIC [7] [µg/mL] | Minimum Lethal Concentration [1] [µg/mL] | Minimum Lethal Concentration [2] [µg/mL] | MIC [8] [µg/mL] |
| --- | --- | --- | --- | --- | --- | --- | --- | --- | --- | --- | --- |
| CCCCCCc1c(O)cc(CCCCC)cc1O (single isomer, unassigned) [Peak 2] | 6.25 (≈ 23.6 µM) | 0.39 (≈ 1.47 µM) | 200 | 3.13 (≈ 11.8 µM) | 12.5 (≈ 47.3 µM) | 50 (≈ 189 µM) | 0.5 (≈ 1.89 µM) | – | – | – | – |
| CCCCCCCc1cc(O)c(CCCCCC)c(O)c1 (single isomer, unassigned) [Peak 3] | 6.25 (≈ 21.4 µM) | 0.39 (≈ 1.33 µM) | – | – | 12.5 (≈ 42.7 µM) | 50 (≈ 171 µM) | 0.39 (≈ 1.33 µM) | 100 (≈ 342 µM) | 50 | 25 | 1.56 (≈ 5.33 µM) |

From US12121552B2, “Pseudomonas chlororaphis species and its use in the control of fish diseases caused by bacteria and fungi” (T3 Bioscience, Inc., priority 2022, dated 2024)
